Measurements as given in US20250367308A1, “LIGAND-DRUG CONJUGATE OF CAMPTOTHECIN ANALOGS, INTERMEDIATES, PREPARATION METHOD THEREFOR, PHARMACEUTICAL COMPOSITION AND APPLICATION THEREOF” (SHANGHAI MICURX PHARMACEUTICAL CO.,LTD., priority 2022, published 2025).

System: Human lung adenocarcinoma cell line A549
Assay: In vitro cytotoxicity test of camptothecin payloads (CellTiter-Glo)
Type: cell-based
Details: Homo sapiens, A549, 72 h, read-out: A549 Cytotoxicity IC50 (nM)
Procedure: Human lung adenocarcinoma cell line A549 was used to evaluate the cytotoxicity of small molecule fragment of the present invention. A549 cells were seeded to a 96-well plate at 2000 cells per well.

## CC[C@@]1(O)C(=O)OCc2c1cc1n(c2=O)Cc2c-1nc1cc(F)c(C)cc1c2CN1CCC(CCO)CC1 [Example 27, (S)-4-ethyl-8-fluoro-4-hydroxy-11-((4-(2-hydroxyethyl)piperidin-1-yl)methyl)-9-methyl-1H-pyrano[3′,4′:6,7] indolizino[1,2-b]quinoline-3,14(4H,12H)-dione]
  IC50: 16.8 nM

## CC[C@@]1(O)C(=O)OCc2c1cc1n(c2=O)Cc2c-1nc1cc(F)c(C)cc1c2CN1CCC2(CC1)CC(O)C2 [Example 31, (S)-4-ethyl-8-fluoro-4-hydroxy-11-((2-hydroxy-7-azaspiro[3.5]nonan-7-yl)methyl)-9-methyl-1H-pyrano[3′,4′:6,7] indolizino[1,2-b]quinoline-3,14(4H,12H)-dione]
  IC50: 12.5 nM

## CC[C@@]1(O)C(=O)OCc2c1cc1n(c2=O)Cc2c-1nc1cc(F)c(F)cc1c2CN1CCC([C@@H](C)O)CC1 [Example 37, (S)-4-ethyl-8,9-difluoro-4-hydroxy-11-((4-((R)-1-hydroxyethyl)piperidin-1-yl)methyl)-1,12-dihydro-14H-pyrano[3′,4′:6,7] indolizino[1,2-b]quinoline-3,14(4H)-dione]
  IC50: 29 nM

## CC[C@@]1(O)C(=O)OCc2c1cc1n(c2=O)Cc2c-1nc1cc(F)c(C)cc1c2CN1CCC2(CCC2O)CC1 (stereo partly drawn) [Example 32, (4S)-4-ethyl-8-fluoro-4-hydroxy-11-((1-hydroxy-7-azaspiro[3.5]nonan-7-yl)methyl)-9-methyl-1H-pyrano[3′,4′:6,7] indolizino[1,2-b]quinoline-3,14(4H,12H)-dione]
  IC50: 12.6 nM

## CC[C@@]1(O)C(=O)OCc2c1cc1n(c2=O)Cc2c-1nc1cc(F)c(C)cc1c2CN1C[C@H]2CC[C@@H](C1)C2O (stereo partly drawn) [Example 33, (4S)-4-ethyl-8-fluoro-4-hydroxy-11-(((1R,5S)-8-hydroxy-3-azabicyclo[3.2.1]octan-3-yl)methyl)-9-methyl-1H-pyrano[3′,4′:6,7] indolizino[1,2-b]quinoline-3,14(4H,12H)-dione]
  IC50: 12.9 nM

## CC[C@@]1(O)C(=O)OCc2c1cc1n(c2=O)Cc2c-1nc1cc(F)c(C)cc1c2CN1CCC(CO)C1 (stereo partly drawn) [Example 8, (4S)-4-ethyl-8-fluoro-4-hydroxy-11-((3-(hydroxymethyl)pyrrolidin-1-yl)methyl)-9-methyl-1H-pyrano[3′,4′:6,7] indolizino[1,2-b]quinoline-3,14(4H,12H)-dione]
  IC50: 82 nM

## CC[C@@]1(O)C(=O)OCc2c1cc1n(c2=O)Cc2c-1nc1cc(F)c(C)cc1c2CN1CC(C)(C)C[C@@H]1CO [Example 22, (S)-4-ethyl-8-fluoro-4-hydroxy-11-(((R)-2-(hydroxymethyl)-4,4-dimethylpyrrolidin-1-yl)methyl)-9-methyl-1H-pyrano[3′,4′:6,7] indolizino[1,2-b]quinoline-3,14(4H,12H)-dione]
  IC50: 14.3 nM
